{
  "source": "paper PMC7717986",
  "about": "“Echinacoside Suppresses Amyloidogenesis and Modulates F-actin Remodeling by Targeting the ER Stress Sensor PERK in a Mouse Model of Alzheimer’s Disease” (Frontiers in Cell and Developmental Biology, 2020)",
  "key": {"human PERK (hPERK)": {"biological_target": "T1, human PERK (hPERK) (Homo sapiens, UniProt Q9NZJ5)", "T1 construct": "gene EIF2AK3", "T1 sequence (Q9NZJ5 30-1116)": "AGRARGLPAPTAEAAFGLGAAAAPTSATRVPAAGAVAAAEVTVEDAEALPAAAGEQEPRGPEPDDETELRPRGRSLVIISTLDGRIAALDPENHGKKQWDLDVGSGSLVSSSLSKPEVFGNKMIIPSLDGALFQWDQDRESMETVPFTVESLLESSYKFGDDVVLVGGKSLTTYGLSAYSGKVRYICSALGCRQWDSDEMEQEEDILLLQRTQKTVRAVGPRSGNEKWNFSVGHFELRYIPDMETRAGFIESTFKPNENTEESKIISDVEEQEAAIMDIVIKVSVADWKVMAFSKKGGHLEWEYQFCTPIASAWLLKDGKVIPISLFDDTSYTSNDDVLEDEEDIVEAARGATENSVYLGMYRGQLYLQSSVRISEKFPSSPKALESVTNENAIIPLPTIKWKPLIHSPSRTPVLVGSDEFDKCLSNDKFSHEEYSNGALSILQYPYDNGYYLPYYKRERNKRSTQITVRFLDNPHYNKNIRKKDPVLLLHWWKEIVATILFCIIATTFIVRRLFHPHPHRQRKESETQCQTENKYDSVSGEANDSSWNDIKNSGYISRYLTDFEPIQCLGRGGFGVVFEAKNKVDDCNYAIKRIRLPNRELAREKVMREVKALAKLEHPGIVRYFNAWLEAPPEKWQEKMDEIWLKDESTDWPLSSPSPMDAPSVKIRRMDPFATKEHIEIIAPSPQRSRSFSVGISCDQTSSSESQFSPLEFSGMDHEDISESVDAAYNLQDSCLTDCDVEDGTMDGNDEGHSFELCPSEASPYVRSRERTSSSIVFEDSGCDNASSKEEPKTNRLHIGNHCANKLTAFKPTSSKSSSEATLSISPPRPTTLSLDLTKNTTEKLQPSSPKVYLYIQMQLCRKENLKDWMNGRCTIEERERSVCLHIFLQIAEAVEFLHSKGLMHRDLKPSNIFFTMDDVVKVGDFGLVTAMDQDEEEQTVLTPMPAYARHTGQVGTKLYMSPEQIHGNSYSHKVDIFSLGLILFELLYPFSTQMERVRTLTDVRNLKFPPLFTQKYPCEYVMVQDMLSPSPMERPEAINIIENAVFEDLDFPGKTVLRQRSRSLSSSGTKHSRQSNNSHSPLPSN", "assay": "microscale thermophoresis (MST) with labeled PERK protein", "format": "binding"}, "mouse PERK (mPERK)": {"biological_target": "T2, mouse PERK (mPERK) (Mus musculus, UniProt Q9Z2B5)", "T2 construct": "gene Eif2ak3", "T2 sequence (Q9Z2B5 29-1114)": "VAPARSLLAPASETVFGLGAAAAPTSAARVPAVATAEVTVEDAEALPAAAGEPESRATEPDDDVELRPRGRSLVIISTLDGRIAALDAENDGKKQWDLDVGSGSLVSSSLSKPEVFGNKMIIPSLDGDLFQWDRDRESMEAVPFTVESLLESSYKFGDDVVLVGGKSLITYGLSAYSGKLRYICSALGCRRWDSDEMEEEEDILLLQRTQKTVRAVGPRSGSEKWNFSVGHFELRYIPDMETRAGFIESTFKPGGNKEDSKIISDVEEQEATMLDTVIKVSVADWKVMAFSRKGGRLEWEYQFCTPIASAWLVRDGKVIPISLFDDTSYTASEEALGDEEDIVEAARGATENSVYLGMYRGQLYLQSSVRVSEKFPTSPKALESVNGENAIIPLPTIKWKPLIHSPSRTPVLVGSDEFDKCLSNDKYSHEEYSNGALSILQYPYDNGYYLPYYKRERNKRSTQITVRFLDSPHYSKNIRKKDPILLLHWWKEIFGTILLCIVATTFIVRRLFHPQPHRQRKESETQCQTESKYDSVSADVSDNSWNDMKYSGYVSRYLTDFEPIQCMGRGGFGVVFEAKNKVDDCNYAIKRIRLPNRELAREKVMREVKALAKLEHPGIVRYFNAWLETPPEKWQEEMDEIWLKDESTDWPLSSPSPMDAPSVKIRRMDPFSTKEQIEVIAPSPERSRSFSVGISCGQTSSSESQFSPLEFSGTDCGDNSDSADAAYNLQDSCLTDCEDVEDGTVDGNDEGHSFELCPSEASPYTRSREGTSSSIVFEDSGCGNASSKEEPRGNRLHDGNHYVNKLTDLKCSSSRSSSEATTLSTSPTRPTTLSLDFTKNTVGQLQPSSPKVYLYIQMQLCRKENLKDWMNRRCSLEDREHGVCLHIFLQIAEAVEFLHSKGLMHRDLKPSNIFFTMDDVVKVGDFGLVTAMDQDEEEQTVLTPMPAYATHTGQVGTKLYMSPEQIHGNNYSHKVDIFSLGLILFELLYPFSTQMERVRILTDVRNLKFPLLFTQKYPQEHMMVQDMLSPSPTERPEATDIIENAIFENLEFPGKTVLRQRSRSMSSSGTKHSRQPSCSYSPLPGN", "assay": "microscale thermophoresis (MST) with labeled PERK protein", "format": "binding"}},
  "data": [
    {"smiles": "C[C@@H]1O[C@@H](O[C@@H]2[C@@H](O)[C@H](OCCc3ccc(O)c(O)c3)O[C@H](CO[C@@H]3O[C@H](CO)[C@@H](O)[C@H](O)[C@H]3O)[C@H]2OC(=O)/C=C/c2ccc(O)c(O)c2)[C@H](O)[C@H](O)[C@H]1O", "note": "[ECH, Echinacoside]", "values": [
      {"measurement": "Kd", "setting": "human PERK (hPERK)", "result": "635 ± 74", "unit": "nM"},
      {"measurement": "Kd", "setting": "mouse PERK (mPERK)", "result": "851 ± 81", "unit": "nM"}
    ]}
  ]
}
